Structures can show the parent of a compound that is named as a salt.
What was measured:
Format in all cases: cell-based
[1] = target: HER2 (A775_G776insYVMA) expressing Ba/F3 stable cell line (Homo sapiens, UniProt P04626, DUP772-775, cells depend on it); assay: Cellular proliferation (Alamar Blue) assay, HER2 YVMA Ba/F3; details: HER2 A775_G776insYVMA Ba/F3, 72 hr, read-out: YVMA IC50
Description: Example 3: Cellular Proliferation (Alamar Blue) Assays
• 1. EGFR(D770_N771insSVD) expressing Ba/F3 stable cell line • 2. EGFR (A767_dupASV) expressing Ba/F3 stable cell line • 3. A431 cells • 4. BTER2 (A775_G776insYVMA) expressing Ba/F3 stable cell line • 5. BTER2 (WT) expressing Ba/F3 stable cell line • 6. BT-474 cells
• 1. Seed cells at 5000 for A431 and 15,000 cells for Ba/F3 in 100 μL/well in complete media (for A431: DMEM with 10% FBS and for Ba/F3 cells: RPMI with 10% FBS) in 96-well tissue culture plate. Leave outer wells without cells for background measurements. Incubate at 37 degree Celsius in 5% CO2 humidified incubator for 16-18 hours. • 2. Add 0.025 ml of 5× concentration compound dilution or DMSO control. Final compound concentration range is 10-0.0005 μM prepared in 3-fold serial dilutions. Incubate for 72 hr at 37 degree Celsius in […] humidified incubator. • 3. Add 0.0125 mL Alamar Blue™ reagent to each well with multi-channel pipette and tap gently on each side of the plate to mix. Incubate for 3 hours at 37 degree Celsius in […] humidified incubator. • 4. Read plates on fluorescence reader (Tecan Spark Control, Device: Spark, Serial #: 1801006040) at 540 nm excitation, 590 nm emission wavelength. • 5. Data analysis was performed using XLfit 5.5.0.5.

[2] = target: EGFR(D770_N771insSVD) expressing Ba/F3 stable cell line (Homo sapiens, UniProt P00533, DUP768-770, cells depend on it); assay: Cellular proliferation (Alamar Blue) assay, EGFR D770_N771insSVD Ba/F3; details: EGFR D770_N771insSVD Ba/F3, 72 hr, read-out: D770 IC50
Method in brief: (§1)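 Alamar Blue proliferation read-out (3 h incubation, ex 540/em 590 nm) after 72 h compound exposure at 37 °C, 5% CO2, using final concentrations of 10-0.0005 μM in 3-fold steps. Cells: engineered Ba/F3 lines at 15,000 per well in RPMI/10% FBS, and BT-474.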

A431 cells = assay: Cellular proliferation (Alamar Blue) assay, A431; details: Homo sapiens, A-431; A431 cells, 72 hr, Alamar Blue; read-out: A431 IC50
Method in brief: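 Seventy-two-hour growth assay with 3-fold compound titration (final 10–0.0005 μM) and Alamar Blue fluorescence end point, ex 540/em 590 nm.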

[3] = target: EGFR (A767_dupASV) expressing Ba/F3 stable cell line (Homo sapiens, UniProt P00533, DUP767-769, cells depend on it); assay: Cellular proliferation (Alamar Blue) assay, EGFR A767_dupASV Ba/F3; details: EGFR A767_dupASV Ba/F3, 72 hr, read-out: A767 IC50
Method in brief: as §1

EGFR (A767_dupASV) expressing Ba/F3 stable cell line, sequence (P00533 with tags, fused parts or gaps DUP767-769): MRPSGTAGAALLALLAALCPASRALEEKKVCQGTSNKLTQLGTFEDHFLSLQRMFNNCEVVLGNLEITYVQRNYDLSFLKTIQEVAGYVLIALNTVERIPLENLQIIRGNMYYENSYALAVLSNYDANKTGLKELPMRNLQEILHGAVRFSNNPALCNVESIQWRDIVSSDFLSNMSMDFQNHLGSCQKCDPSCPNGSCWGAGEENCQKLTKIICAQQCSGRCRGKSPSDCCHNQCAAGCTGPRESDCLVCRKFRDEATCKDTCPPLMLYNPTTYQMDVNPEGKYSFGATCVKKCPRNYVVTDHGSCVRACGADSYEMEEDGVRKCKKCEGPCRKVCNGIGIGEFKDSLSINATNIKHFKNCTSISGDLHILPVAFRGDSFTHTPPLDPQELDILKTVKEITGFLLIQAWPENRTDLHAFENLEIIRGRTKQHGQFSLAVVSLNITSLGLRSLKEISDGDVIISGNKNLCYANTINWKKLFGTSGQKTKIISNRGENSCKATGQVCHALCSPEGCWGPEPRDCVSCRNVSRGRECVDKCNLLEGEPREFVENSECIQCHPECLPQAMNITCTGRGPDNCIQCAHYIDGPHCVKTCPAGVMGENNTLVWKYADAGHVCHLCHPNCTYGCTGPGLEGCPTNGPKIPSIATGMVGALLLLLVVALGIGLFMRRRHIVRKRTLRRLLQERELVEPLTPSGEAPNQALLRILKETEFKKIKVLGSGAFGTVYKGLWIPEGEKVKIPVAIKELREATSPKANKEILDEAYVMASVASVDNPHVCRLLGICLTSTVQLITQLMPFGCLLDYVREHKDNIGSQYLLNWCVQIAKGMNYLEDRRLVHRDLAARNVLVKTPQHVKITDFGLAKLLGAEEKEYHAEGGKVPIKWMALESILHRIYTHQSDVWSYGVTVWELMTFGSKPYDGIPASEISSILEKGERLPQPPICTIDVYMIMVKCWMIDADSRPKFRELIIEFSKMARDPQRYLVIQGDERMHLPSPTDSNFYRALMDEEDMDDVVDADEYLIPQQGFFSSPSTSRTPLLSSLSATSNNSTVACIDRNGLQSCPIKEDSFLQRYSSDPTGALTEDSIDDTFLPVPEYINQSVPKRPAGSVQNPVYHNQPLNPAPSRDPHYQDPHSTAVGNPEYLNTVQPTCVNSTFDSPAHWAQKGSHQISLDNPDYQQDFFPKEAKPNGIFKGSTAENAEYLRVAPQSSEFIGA
EGFR(D770_N771insSVD) expressing Ba/F3 stable cell line, sequence (P00533 with tags, fused parts or gaps DUP768-770): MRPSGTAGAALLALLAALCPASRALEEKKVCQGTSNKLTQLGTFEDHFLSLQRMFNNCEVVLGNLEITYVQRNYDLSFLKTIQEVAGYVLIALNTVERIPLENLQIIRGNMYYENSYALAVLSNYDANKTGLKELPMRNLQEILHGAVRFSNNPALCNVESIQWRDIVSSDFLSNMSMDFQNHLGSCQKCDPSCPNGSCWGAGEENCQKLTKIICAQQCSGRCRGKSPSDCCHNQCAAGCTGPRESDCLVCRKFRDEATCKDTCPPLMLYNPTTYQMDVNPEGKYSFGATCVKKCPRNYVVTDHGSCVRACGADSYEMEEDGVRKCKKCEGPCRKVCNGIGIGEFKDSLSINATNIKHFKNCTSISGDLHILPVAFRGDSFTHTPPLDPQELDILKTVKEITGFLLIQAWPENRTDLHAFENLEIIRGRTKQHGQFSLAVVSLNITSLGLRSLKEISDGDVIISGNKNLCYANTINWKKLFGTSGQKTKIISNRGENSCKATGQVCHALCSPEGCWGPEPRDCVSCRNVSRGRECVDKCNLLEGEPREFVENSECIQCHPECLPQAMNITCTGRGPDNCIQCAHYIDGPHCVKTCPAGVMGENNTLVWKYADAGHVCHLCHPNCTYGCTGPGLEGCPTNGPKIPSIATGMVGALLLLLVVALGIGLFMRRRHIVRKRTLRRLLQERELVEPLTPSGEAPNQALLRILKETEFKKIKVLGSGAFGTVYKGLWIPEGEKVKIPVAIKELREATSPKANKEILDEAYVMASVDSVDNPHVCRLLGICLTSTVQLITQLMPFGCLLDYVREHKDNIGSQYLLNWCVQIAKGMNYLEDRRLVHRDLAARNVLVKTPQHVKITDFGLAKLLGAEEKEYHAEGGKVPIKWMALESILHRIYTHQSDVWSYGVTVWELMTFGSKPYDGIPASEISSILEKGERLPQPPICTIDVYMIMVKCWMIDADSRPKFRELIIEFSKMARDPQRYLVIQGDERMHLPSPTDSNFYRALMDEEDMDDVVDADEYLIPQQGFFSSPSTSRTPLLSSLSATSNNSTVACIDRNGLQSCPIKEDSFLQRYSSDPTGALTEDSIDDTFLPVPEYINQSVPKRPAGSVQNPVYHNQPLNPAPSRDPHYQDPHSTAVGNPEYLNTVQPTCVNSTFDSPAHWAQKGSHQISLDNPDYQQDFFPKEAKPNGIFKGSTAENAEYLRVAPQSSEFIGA
HER2 (A775_G776insYVMA) expressing Ba/F3 stable cell line, sequence (P04626 with tags, fused parts or gaps DUP772-775): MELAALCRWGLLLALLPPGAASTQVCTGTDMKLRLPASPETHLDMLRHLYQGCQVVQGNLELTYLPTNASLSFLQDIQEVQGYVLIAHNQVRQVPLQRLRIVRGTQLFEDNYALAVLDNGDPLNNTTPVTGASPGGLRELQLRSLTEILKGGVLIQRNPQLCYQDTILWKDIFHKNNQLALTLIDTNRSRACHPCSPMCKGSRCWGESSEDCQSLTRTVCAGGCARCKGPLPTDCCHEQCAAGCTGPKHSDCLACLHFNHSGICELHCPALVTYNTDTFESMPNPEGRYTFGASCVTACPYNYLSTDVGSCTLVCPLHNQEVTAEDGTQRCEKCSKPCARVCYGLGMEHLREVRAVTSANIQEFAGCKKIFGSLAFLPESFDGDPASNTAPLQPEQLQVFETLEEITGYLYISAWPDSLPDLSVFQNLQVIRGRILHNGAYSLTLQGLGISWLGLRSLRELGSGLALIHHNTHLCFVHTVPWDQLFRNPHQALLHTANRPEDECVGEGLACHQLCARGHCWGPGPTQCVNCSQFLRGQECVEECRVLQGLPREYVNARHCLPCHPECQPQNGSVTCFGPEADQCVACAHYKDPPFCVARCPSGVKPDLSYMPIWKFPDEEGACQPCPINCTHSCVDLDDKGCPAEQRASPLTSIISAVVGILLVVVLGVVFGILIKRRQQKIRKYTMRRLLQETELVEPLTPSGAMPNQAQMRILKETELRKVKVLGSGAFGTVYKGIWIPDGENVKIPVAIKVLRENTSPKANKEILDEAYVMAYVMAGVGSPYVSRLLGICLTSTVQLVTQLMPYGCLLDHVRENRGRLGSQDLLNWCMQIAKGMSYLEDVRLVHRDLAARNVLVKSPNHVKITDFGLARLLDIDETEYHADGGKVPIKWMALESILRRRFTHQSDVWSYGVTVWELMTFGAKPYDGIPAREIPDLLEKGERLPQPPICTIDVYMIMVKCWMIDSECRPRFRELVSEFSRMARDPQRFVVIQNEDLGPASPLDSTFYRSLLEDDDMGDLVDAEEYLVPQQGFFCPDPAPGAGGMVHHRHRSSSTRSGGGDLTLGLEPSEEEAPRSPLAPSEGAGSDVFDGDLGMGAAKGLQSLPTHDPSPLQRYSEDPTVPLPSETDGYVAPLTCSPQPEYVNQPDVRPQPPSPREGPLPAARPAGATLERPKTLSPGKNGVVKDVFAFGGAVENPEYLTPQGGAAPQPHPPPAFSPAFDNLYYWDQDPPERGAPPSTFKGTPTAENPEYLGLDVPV

SMILES | GI50 [1] [nM] | GI50 [2] [nM] | IC50 (A431 cells) [µM] | GI50 [3] [nM]
CN(C)C/C=C/C(=O)Nc1cccc(N2C(=O)N(Cc3ccccc3)Cc3cnc(Nc4cn(C5CCN(C)CC5)nc4Cl)nc32)c1 [Compound 65, (E)-N-(3-(3-benzyl-7-((3-chloro-1-(1-methylpiperidin-4-yl)-1H-pyrazol-4-yl)amino)-2-oxo-3,4-dihydropyrimido[4,5-d]pyrimidin-1(2H)-yl)phenyl)-4-(dimethylamino)but-2-enamide trifluoroacetate salt] | 732 | 1090 | ≥ 10 | 964
CN(C)C/C=C/C(=O)Nc1cccc(N2C(=O)N(Cc3ccccc3)Cc3cnc(Nc4ccc(N5CCN(C)CC5)nc4)nc32)c1 [Compound 66, (E)-N-(3-(3-benzyl-7-((6-(4-methylpiperazin-1-yl)pyridin-3-yl)amino)-2-oxo-3,4-dihydropyrimido[4,5-d]pyrimidin-1(2H)-yl)phenyl)-4-(dimethylamino)but-2-enamide] | 1760 | 3190 | ≥ 10 | 3280
C=CC(=O)Nc1cccc(N2C(=O)N(Cc3ccccc3)Cc3cnc(Nc4ccc(N5CCN(C)CC5)nc4)nc32)c1 [Compound 67, N-(3-(3-benzyl-7-((6-(4-methylpiperazin-1-yl)pyridin-3-yl)amino)-2-oxo-3,4-dihydropyrimido[4,5-d]pyrimidin-1(2H)-yl)phenyl)acrylamide] | 90 | 84 | ≥ 10 | 41
Cc1ccc(CN2Cc3cnc(Nc4cn(C)nc4Cl)nc3N(c3cccc(NC(=O)/C=C/CN(C)C)c3)C2=O)c(C)c1 [Compound 68, (E)-N-(3-(7-((3-chloro-1-methyl-1H-pyrazol-4-yl)amino)-3-(2,4-dimethylbenzyl)-2-oxo-3,4-dihydropyrimido[4,5-d]pyrimidin-1(2H)-yl)phenyl)-4-(dimethylamino)but-2-enamide] | 632 | 798 | 6.02 | 356
C=CC(=O)Nc1cccc(N2C(=O)N(Cc3ccc(C)cc3C)Cc3cnc(Nc4cn(C)nc4Cl)nc32)c1 [Compound 69, N-(3-(7-((3-chloro-1-methyl-1H-pyrazol-4-yl)amino)-3-(2,4-dimethylbenzyl)-2-oxo-3,4-dihydropyrimido[4,5-d]pyrimidin-1(2H)-yl)phenyl)acrylamide] | 682 | 349 | ≥ 10 | 333
Cn1cc(Nc2ncc3c(n2)N(c2cccc(NC(=O)/C=C/CN4CCCCC4)c2)C(=O)N(Cc2ccccc2)C3)c(Cl)n1 [Compound 70, (E)-N-(3-(3-benzyl-7-((3-chloro-1-methyl-1H-pyrazol-4-yl)amino)-2-oxo-3,4-dihydropyrimido[4,5-d]pyrimidin-1(2H)-yl)phenyl)-4-(piperidin-1-yl)but-2-enamide] | 38 | 72 | ≥ 10 | 42
C=CC(=O)Nc1cccc(N2C(=O)N(Cc3ccccc3)Cc3cnc(Nc4cn(C)nc4F)nc32)c1 [Compound 71, N-(3-(3-benzyl-7-((3-fluoro-1-methyl-1H-pyrazol-4-yl)amino)-2-oxo-3,4-dihydropyrimido[4,5-d]pyrimidin-1(2H)-yl)phenyl)acrylamide] | 137 | 21 | ≥ 10 | 22
C=CC(=O)Nc1cccc(N2C(=O)N(Cc3ccccc3)Cc3cnc(Nc4ccc(N5CCC(N(C)C)CC5)nc4)nc32)c1 [Compound 72, N-(3-(3-benzyl-7-((6-(4-(dimethylamino)piperidin-1-yl)pyridin-3-yl)amino)-2-oxo-3,4-dihydropyrimido[4,5-d]pyrimidin-1(2H)-yl)phenyl)acrylamide] | 575 | 296 | ≥ 10 | 100
C=CC(=O)Nc1cccc(N2C(=O)N(Cc3ccccc3)Cc3cnc(Nc4cn(C)nc4Cl)nc32)c1 [Compound 73, N-(3-(3-benzyl-7-((3-chloro-1-methyl-1H-pyrazol-4-yl)amino)-2-oxo-3,4-dihydropyrimido[4,5-d]pyrimidin-1(2H)-yl)phenyl)acrylamide] | 49 | 20 | ≥ 10 | 4
Cn1cc(Nc2ncc3c(n2)N(c2cccc(NC(=O)/C=C/CF)c2)C(=O)N(Cc2ccccc2)C3)c(Cl)n1 [Compound 74, (E)-N-(3-(3-benzyl-7-((3-chloro-1-methyl-1H-pyrazol-4-yl)amino)-2-oxo-3,4-dihydropyrimido[4,5-d]pyrimidin-1(2H)-yl)phenyl)-4-fluorobut-2-enamide] | 80 | 25 | ≥ 10 | 11
C=CC(=O)Nc1cccc(N2C(=O)N(Cc3ccccc3)Cc3cnc(Nc4cccc5c4CCN5C)nc32)c1 [Compound 79, N-(3-(3-benzyl-7-((1-methylindolin-4-yl)amino)-2-oxo-3,4-dihydropyrimido[4,5-d]pyrimidin-1(2H)-yl)phenyl)acrylamide] | 338 | 107 | ≥ 10 | 89
CN(C)C/C=C/C(=O)Nc1cccc(N2C(=O)N(Cc3ccccc3)Cc3cnc(Nc4cccc5c4CCN5C)nc32)c1 [Compound 80, (E)-N-(3-(3-benzyl-7-((1-methylindolin-4-yl)amino)-2-oxo-3,4-dihydropyrimido[4,5-d]pyrimidin-1(2H)-yl)phenyl)-4-(dimethylamino)but-2-enamide] | 296 | 806 | ≥ 10 | 343
C=CC(=O)Nc1ccc(F)c(N2C(=O)N(Cc3ccccc3)Cc3cnc(Nc4cn(C)nc4Cl)nc32)c1 [Compound 81, N-(3-(3-benzyl-7-((3-chloro-1-methyl-1H-pyrazol-4-yl)amino)-2-oxo-3,4-dihydropyrimido[4,5-d]pyrimidin-1(2H)-yl)-4-fluorophenyl)acrylamide] | 13 | 35 | ≥ 10 | 27
Cn1cc(Nc2ncc3c(n2)N(c2cccc(NC(=O)/C=C/CN4CCCCC4)c2)C(=O)N(Cc2ccccc2)C3)c(F)n1 [Compound 82, (E)-N-(3-(3-benzyl-7-((3-fluoro-1-methyl-1H-pyrazol-4-yl)amino)-2-oxo-3,4-dihydropyrimido[4,5-d]pyrimidin-1(2H)-yl)phenyl)-4-(piperidin-1-yl)but-2-enamide] | 40 | 280 | ≥ 10 | 123
COC/C=C/C(=O)Nc1cccc(N2C(=O)N(Cc3ccccc3)Cc3cnc(Nc4cn(C)nc4F)nc32)c1 [Compound 83, (E)-N-(3-(3-benzyl-7-((3-fluoro-1-methyl-1H-pyrazol-4-yl)amino)-2-oxo-3,4-dihydropyrimido[4,5-d]pyrimidin-1(2H)-yl)phenyl)-4-methoxybut-2-enamide] | 740 | 992 | ≥ 10 | 1010
CN(C)C/C=C/C(=O)Nc1ccc(F)c(N2C(=O)N(Cc3ccccc3)Cc3cnc(Nc4cn(C)nc4Cl)nc32)c1 [Compound 85, (E)-N-(3-(3-benzyl-7-((3-chloro-1-methyl-1H-pyrazol-4-yl)amino)-2-oxo-3,4-dihydropyrimido[4,5-d]pyrimidin-1(2H)-yl)-4-fluorophenyl)-4-(dimethylamino)but-2-enamide] | 38 | 123 | 1.28 | 94
Cn1cc(Nc2ncc3c(n2)N(c2cccc(NC(=O)/C=C/CF)c2)C(=O)N(Cc2ccccc2)C3)c(F)n1 [Compound 88, (E)-N-(3-(3-benzyl-7-((3-fluoro-1-methyl-1H-pyrazol-4-yl)amino)-2-oxo-3,4-dihydropyrimido[4,5-d]pyrimidin-1(2H)-yl)phenyl)-4-fluorobut-2-enamide] | 101 | 40 | > 10 | 22

Source: patent US20230027026A1, “FUSED PYRIMIDINE COMPOUNDS, COMPOSITIONS AND MEDICINAL APPLICATIONS THEREOF” (JUBILANT BIOSYS LIMITED, priority 2019, published 2023)
